Values quoted from earlier work in patent US7718389B2, “Stabilizing composition and stabilizing method of coelenterazine solution for high-throughput measurement of luciferase activity” (National Institute of Advanced Industrial Science and …, priority 2006, dated 2010).

Settings: background statement

Question: Which “pKa value of proton of an imidazopyrazinone ring” value does the source give for `Oc1ccc(Cc2nc3c(Cc4ccccc4)nc(-c4ccc(O)cc4)cn3c2O)cc1` [coelenterazine] here?
Answer: around 7.4
